Experimental data taken from publication PMC12169608, “Peptidomimetic Phenoxymethyl Ketone Warheads as Potent Dual-Mode Inhibitors against SARS-CoV‑2 M^pro and Cathepsin” (Journal of Medicinal Chemistry, 2025).
In brackets after ≈: the same amount, converted by molar mass. Where two headings read alike, the source gives them in different places.

Columns and labels:
[1] = target: mouse cathepsin L (mCTSL) (Mus musculus, UniProt P06797); assay: mCTSL biochemical assay
[2] = target: human cathepsin B (hCTSB) (Homo sapiens, UniProt P07858); assay: hCTSB biochemical assay
SARS-CoV-2 = assay: microbe, parasite or virus in culture; type: cell-based; settings: for EC50: Severe acute respiratory syndrome coronavirus 2, Vero C1008, read-out: SARS-CoV-2 CPE reduction assay pEC50 (converted)
in vitro [3] = settings: African green monkey
[4] = test system: luciferase-expressing VSV (ΔG) pseudotyped with Spike from SARS-CoV-2; assay: microbe, parasite or virus in culture; type: cell-based; settings: Vesicular stomatitis virus, Vero C1008, read-out: Entry reporter assay pEC50 (converted)
[5] = target: T1, human cathepsin L (hCTSL) (Homo sapiens, UniProt P07711); assay: hCTSL biochemical assay; settings: for hCTSL inhibition, IC50 range in words: biochemical assay
T1 construct: purchased R&D Systems

SARS-CoV-2 M^pro = SARS-CoV-2 M^pro (Severe acute respiratory syndrome coronavirus 2, UniProt P0DTD1); assay: biochemical; type: biochemical; settings: for M^pro inhibition, IC50 range in words: biochemical assay; for IC50: read-out: M^pro biochemical assay pIC50 (converted)
[6] = 3 h, 2 µM
physchem [7] = settings: pH 7.4
in vitro [8] = settings: mouse, hepatocytes; for hepatocyte CLint at 2 h, 2 µM: CLint (mouse hepatocytes)
in vitro [9] = settings: mouse, plasma, mouse plasma protein binding
[10] = target: mouse cathepsin B (mCTSB) (Mus musculus, UniProt P10605); assay: mCTSB biochemical assay; settings: read-out: pIC50 (mouse CTSB) (converted)
[11] = microsomes, 10 µM, pH 7.4
physchem [12] = settings: pH 7.4; remark: listed apart in the source
[13] = Mouse hepatocyte stability; settings: mouse, cryopreserved hepatocytes
[14] = read-out: pIC50 (mouse CTSL) (converted)

T1 sequence (P07711 114-333): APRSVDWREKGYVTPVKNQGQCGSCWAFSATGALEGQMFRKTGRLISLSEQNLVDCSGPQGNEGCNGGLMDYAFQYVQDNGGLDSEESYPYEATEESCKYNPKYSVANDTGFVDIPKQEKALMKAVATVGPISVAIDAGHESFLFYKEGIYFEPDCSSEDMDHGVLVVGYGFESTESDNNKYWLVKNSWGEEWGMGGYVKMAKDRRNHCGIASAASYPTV
Sequence of mouse cathepsin L (mCTSL) (P06797 114-334): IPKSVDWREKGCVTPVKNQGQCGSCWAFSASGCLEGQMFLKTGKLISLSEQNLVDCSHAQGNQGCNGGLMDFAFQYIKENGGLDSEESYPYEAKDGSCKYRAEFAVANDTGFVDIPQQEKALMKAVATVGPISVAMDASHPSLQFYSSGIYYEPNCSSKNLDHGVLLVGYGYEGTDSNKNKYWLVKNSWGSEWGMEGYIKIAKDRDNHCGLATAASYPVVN
Sequence of mouse cathepsin B (mCTSB) (P10605 80-339): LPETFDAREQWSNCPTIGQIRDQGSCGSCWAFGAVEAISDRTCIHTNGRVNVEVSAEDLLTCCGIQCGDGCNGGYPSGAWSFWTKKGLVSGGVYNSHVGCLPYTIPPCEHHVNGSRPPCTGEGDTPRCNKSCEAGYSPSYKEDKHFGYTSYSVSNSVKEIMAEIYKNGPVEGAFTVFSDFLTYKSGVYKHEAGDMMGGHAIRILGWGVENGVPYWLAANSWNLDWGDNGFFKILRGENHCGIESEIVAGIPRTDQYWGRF

Row | SMILES | hCTSB biochemical assay pIC50 [2] | IC50 [1, 14] [nM] | EC50 (SARS-CoV-2) [nM] | CC50 (in vitro [3]) [nM] | EC50 [4] [nM] | hCTSL biochemical assay pIC50 [5] | IC50 (SARS-CoV-2 M^pro) [nM] | mouse plasma protein binding, fraction bound (Fb) [6] [%] | logD at 1 h (physchem [7]) | hepatocyte CLint at 2 h, 2 µM (in vitro [8]) [µL/min/1e6 cells] | fraction unbound at 3 h, 2 µM (in vitro [9]; fraction bound (Fb)) | fraction unbound at 3 h, 2 µM (in vitro [9]; fraction unbound (Fu)) | solubility kinetic at 24 h (physchem [12]) [µM] | other results
1 | CC(C)(C)[C@H](NC(=O)C(F)(F)F)C(=O)N1C[C@H]2[C@@H]([C@H]1C(=O)N[C@H](C#N)C[C@@H]1CCNC1=O)C2(C)C [Nirmatrelvir, reference compound] |  |  |  |  |  |  |  |  |  |  |  |  |  | IC50 [1]: > 50100 nM
2 | COc1cccc2[nH]c(C(=O)N[C@H](Cc3cccc(F)c3)C(=O)N[C@@H](C[C@@H]3CCNC3=O)C(=O)COc3c(F)c(F)c(CO)c(F)c3F)cc12 [compound 2, N-((R)-3-(3-Fluorophenyl)-1-oxo-1-(((S)-3-oxo-1-((S)-2-oxopyrrolidin-3-yl)-4-(2,3,5,6-tetrafluoro-4-(hydroxymethyl)phenoxy)butan-2-yl)amino)propan-2-yl)-4-methoxy-1H-indole-2-carboxamide] | 5.14 | 13500 | 21900 | > 74100 | > 50100 | 4.67 | 4270 |  |  |  |  |  |  | fold less active than 1 in the SARS-CoV-2 CPE reduction assay (SARS-CoV-2): ~169 fold; hCTSL inhibition, IC50 range in words [5]: only micromolar inhibition; M^pro inhibition, IC50 range in words (SARS-CoV-2 M^pro): only micromolar inhibition
3 | CCCCCCCC(=O)N[C@@H](Cc1cccc(F)c1)C(=O)N[C@@H](C[C@@H]1CCNC1=O)C(=O)COc1c(F)c(F)c(CO)c(F)c1F [compound 3, N-((S)-3-(3-Fluorophenyl)-1-oxo-1-(((S)-3-oxo-1-((S)-2-oxopyrrolidin-3-yl)-4-(2,3,5,6-tetrafluoro-4-(hydroxymethyl)phenoxy)butan-2-yl)amino)propan-2-yl)octanamide] | 7.92 | 75.9 | 70.8 | > 501 |  | 7.39 | 11.5 | 99.59 | 2.23 | 206 | 0.0041 | 0.0041 |  | 
4 | CCCCCCCCCCCCCCCC(=O)N[C@@H](Cc1cccc(F)c1)C(=O)N[C@@H](C[C@@H]1CCNC1=O)C(=O)COc1c(F)c(F)c(CO)c(F)c1F [compound 4, N-((S)-3-(3-Fluorophenyl)-1-oxo-1-(((S)-3-oxo-1-((S)-2-oxopyrrolidin-3-yl)-4-(2,3,5,6-tetrafluoro-4-(hydroxymethyl)phenoxy)butan-2-yl)amino)propan-2-yl)palmitamide] | 5.11 | 10500 | 2240 | > 25100 | 5620 | < 4.30 | 3800 |  |  | 9.31 |  |  |  | hCTSL inhibition, IC50 range in words [5]: only micromolar inhibition; logD (physchem [7]): > 3.5; M^pro inhibition, IC50 range in words (SARS-CoV-2 M^pro): only micromolar inhibition
5 | O=C(N[C@@H](Cc1c[nH]c2ccccc12)C(=O)N[C@@H](C[C@@H]1CCNC1=O)C(=O)COc1c(F)c(F)c(CO)c(F)c1F)c1cc2ccccc2[nH]1 [compound 5, N-((S)-3-(1H-Indol-3-yl)-1-oxo-1-(((S)-3-oxo-1-((S)-2-oxopyrrolidin-3-yl)-4-(2,3,5,6-tetrafluoro-4-(hydroxymethyl)phenoxy)butan-2-yl)amino)propan-2-yl)-1H-indole-2-carboxamide] | 6.54 | 224 | 1170 | > 10000 | 5750 | 7.64 | 41.7 | 98.79 | 1.5 | 182 | 0.0121 | 0.0121 |  | IC50 [10]: 12.3 nM
6 | COc1cccc2[nH]c(C(=O)N[C@@H](Cc3cccc(F)c3)C(=O)N[C@@H](C[C@@H]3CC(=O)NC3=O)C(=O)COc3c(F)c(F)c(CO)c(F)c3F)cc12 [compound 6, N-((S)-1-(((S)-1-((R)-2,5-Dioxopyrrolidin-3-yl)-3-oxo-4-(2,3,5,6-tetrafluoro-4-(hydroxymethyl)phenoxy)butan-2-yl)amino)-3-(3-fluorophenyl)-1-oxopropan-2-yl)-4-methoxy-1H-indole-2-carboxamide] | 6.55 | 97.7 | 1910 | > 25100 |  | 7.89 | 6.03 |  | 3.08 | 156 |  |  | 20.9 (≈ 15 µg/mL) | Peak area (%) by LCMS, mouse liver microsomal stability assay of 1 ([11]; 0 h): 0%; Peak area (%) by LCMS, mouse liver microsomal stability assay of 1 ([11]; 5 min): 2.5%; Peak area (%) by LCMS, mouse liver microsomal stability assay of 1 ([11]; 0.25 h): 10.2%; Peak area (%) by LCMS, mouse liver microsomal stability assay of 1 ([11]; 0.5 h): 19.2%; Peak area (%) by LCMS, mouse liver microsomal stability assay of 1 ([11]; 0.75 h): 23.2%; Peak area (%) by LCMS, mouse liver microsomal stability assay of 1 ([11]; 1 h): 24.9%
7 | COc1cccc2[nH]c(C(=O)N[C@@H](Cc3cccc(F)c3)C(=O)N[C@@H](C[C@@H]3CC(=O)NC3=O)C(=O)COc3c(F)c(F)c(C(C)O)c(F)c3F)cc12 (stereo partly drawn) [compound 9, N-((2S)-1-(((2S)-1-((R)-2,5-Dioxopyrrolidin-3-yl)-3-oxo-4-(2,3,5,6-tetrafluoro-4-(1-hydroxyethyl)phenoxy)butan-2-yl)amino)-3-(3-fluorophenyl)-1-oxopropan-2-yl)-4-methoxy-1H-indole-2-carboxamide] | 6.09 | 158 | 1200 | > 10000 |  | 7.65 | 5.5 |  | 2.6 | 134 |  |  | 6.33 (≈ 4.62 µg/mL) | 
8 | COc1cccc2[nH]c(C(=O)N[C@@H](Cc3cccc(F)c3)C(=O)N[C@@H](C[C@@H]3CC(=O)NC3=O)C(=O)COc3c(F)c(F)c(C(C)(C)O)c(F)c3F)cc12 [compound 11] | 5.88 | 316 | 759 | > 5010 | 8910 | 7.95 | 6.76 |  | 2.03 | 124 |  |  | 0.88 (≈ 0.655 µg/mL) | fold less active than 1 in the SARS-CoV-2 CPE reduction assay (SARS-CoV-2): ~6 fold
9 | COc1cccc2[nH]c(C(=O)N[C@@H](Cc3cccc(F)c3)C(=O)N[C@@H](CCn3cn[nH]c3=O)C(=O)COc3c(F)c(F)c(C(C)(C)O)c(F)c3F)cc12 [compound 13, N-((S)-3-(3-Fluorophenyl)-1-oxo-1-(((S)-2-oxo-5-(5-oxo-1,5-dihydro-4H-1,2,4-triazol-4-yl)-1-(2,3,5,6-tetrafluoro-4-(2-hydroxypropan-2-yl)phenoxy)pentan-3-yl)amino)propan-2-yl)-4-methoxy-1H-indole-2-carboxamide] | 6.68 | 23.4 | 1660 | > 10000 |  | 8.71 | 295 |  | 2.7 | 78.8 |  |  | 6.78 (≈ 5.05 µg/mL) | half-life at 1 µM [13]: 22 min; IC50 [10]: < 6.92 nM; hepatocyte CLint at 1 µM (in vitro [8]; CLint (mouse hepatocytes + ritonavir 4:1)): 49.3 µL/min/1e6 cells; fraction unbound at 3 h, 800 µM (in vitro [9]; fraction bound (Fb)): 0.0031; fraction unbound at 3 h, 800 µM (in vitro [9]; fraction unbound (Fu)): 0.0028
10 | COc1cccc2[nH]c(C(=O)N[C@@H](Cc3cccc(F)c3)C(=O)N[C@@H](C[C@@H]3CCNC3=O)C(=O)COc3c(F)c(F)cc(F)c3F)cc12 [compound 15, reference compound] | 5.46 | 603 | 39.8 | > 1260 |  | 7.39 | 5.89 | 99.57 | 2.99 | 240 | 0.0043 | 0.0043 | 1.4 (≈ 0.942 µg/mL) | selectivity for M^pro over hCTSL (SARS-CoV-2 M^pro; biochemical assays): ~7 fold
11 | COc1cccc2[nH]c(C(=O)N[C@@H](Cc3cccc(F)c3)C(=O)N[C@@H](C[C@@H]3CCNC3=O)C(=O)COc3c(F)c(F)c(F)c(F)c3F)cc12 [compound 16, reference compound] | 5.82 | 550 | 39.8 | > 251 | 676 | 6.98 | 6.76 | 99.33 | 2.95 | 154 | 0.0067 | 0.0067 | 4.09 (≈ 2.82 µg/mL) | selectivity for M^pro over hCTSL (SARS-CoV-2 M^pro): ~16 fold
